Columns and labels:
[1] = system: pure neuronal cultures (cortical neurons) exposed to glutamine
[2] = system: glial cultures (astrocytes); test: Glutamate production in intact glial cultures with added glutamine; type: cell-based, mouse (Swiss Webster)
Procedure: The glutamate concentration of glial cultures was maintained below 1 μM when cells were maintained in the absence or presence of 2 mM added glutamine or when subjected to hypoxic conditions (see below). The medium glutamate concentration remained unchanged between 7 and 24 h after medium change and was 0.14±0.04 μM and 0.36±0.06μM in medium containing 0.15 mM or 2.0 mM glutamine, respectively. Based on these steady state concentrations and the measured rate of glutamate uptake, the rates of glutamate production in the absence and presence of added glutamine were calculated to be 0.012 μM/min (4.8 pmol/min) and 0.030 μM/min (12 pmol/min), respectively. Thus, the calculated rates of glutamate production by glial cultures are only slightly affected by the addition of glutamine and are similar to those observed in intact neurons cultured in the absence of added glutamine.
Pre-column derivatization with o-phthalaldehyde (OPA, Sigma) and separation by reversed phase HPLC was used. A Gilson HPLC was fitted with a Hewlett-Packard model 1046A fluorimetric detector (excitation 340 nm, emission 420 nm). Medium was collected from cell culture at various times, and frozen at -80° C., prior to dilution of 5 or 10 μl into auto-sampler vials containing 40 or 45 μl dimethylformamide:water 1:3 (derivatives with 2-mercaptoethanol) or 1:9 (derivatives with N-acetyl-L-cysteine). […]
(§1) In cultures where glutamate concentrations are (within error) constant, d[Glu]/dt is close to zero, and cellular production of medium glutamate is balanced by its removal, such that glutamate production can be calculated from the steady state equation: […]
(§2) Calculations were performed using the slopes of the regression lines which describe the rate constants for glutamate removal and the mean values for culture medium glutamate concentrations. […] For comparative purposes, glutamate production rates can be expressed as pmol of glutamate produced per min in each culture. […]

[3] = system: mixed glial-neuronal cultures; test: Glutamate production in intact mixed glial-neuronal cultures with added glutamine; type: cell-based, mouse (Swiss Webster)
Procedure: Added glutamate (15 μM) was rapidly cleared from the medium of the mixed glial-neuronal cultures (FIG. 1). The uptake again fit to a first order process and occurred with a rate constant of 0.072 min^-1. […] When the intact mixed cultures were maintained in the absence or presence of added 2 mM glutamine, they also maintained steady state concentrations of glutamate below 1 μM (0.37±0.06 μM and 0.83±0.47 μM respectively). Thus, from the steady state equation, the rates of glutamate production were estimated to be 0.027 μM/min (11 pmol/min) in the absence of added glutamine and 0.060 μM/min (24 pmol/min) in the presence of 2 mM glutamine.
Measurements of glutamate and glutamine concentrations, as well as of the release of the cytoplasmic marker enzyme, lactate dehydrogenase (LDH), were made with the medium of mixed neuronal-astrocyte cultures exposed to hypoxic and control conditions, with and without the addition of 2 mM glutamine. For comparative purposes, the measurements were made in mixed cultures in which complete neuronal death was caused by a 5h exposure to 500 μM NMDA. The first glutamate measurement was made at the end of hypoxia (5h with mixed cultures, 7h with astrocytes), and the second at 19 h after the subsequent return of oxygen. If added, glutamine was present during and after hypoxia. LDH released by the experimental treatment was measured at 24 h, and is expressed as a percentage of the total cellular content (neurons in mixed cultures, and glia in glial cultures). To verify the neuronal origin of LDH and glutamate, similar experiments were performed on cultures that only contained glia.
Pre-column derivatization with o-phthalaldehyde (OPA, Sigma) and separation by reversed phase HPLC was used. A Gilson HPLC was fitted with a Hewlett-Packard model 1046A fluorimetric detector (excitation 340 nm, emission 420 nm). Medium was collected from cell culture at various times, and frozen at -80° C., prior to dilution of 5 or 10 μl into auto-sampler vials containing 40 or 45 μl dimethylformamide:water 1:3 (derivatives with 2-mercaptoethanol) or 1:9 (derivatives with N-acetyl-L-cysteine). For analysis of the derivatives formed with 2-mercaptoethanol, samples were reacted according to published methods (Newcomb, R. (1989) LC GC 7, 570-578; Lindroth, P., and Mopper. K., (1979) Anal. Chem. 51, 1667-1674.), and a gradient of 0-40% methanol in 1.25 mM sodium phosphate pH 6.2 over 20 min was used to elute the derivatives from a 4.5×250 mm Beckman Ultrasphere octadecylsilica column (dp 5 μm) at 1 ml/min. For analysis of the derivatives formed with N-acetyl-L-cysteine (Bruckner), samples were reacted with 25 μl of 1 mg/ml OPA, and 50 μl of 1 mg/ml N-acetyl-L-cysteine (Fluka) in 0.5 M potassium borate pH 10.0. […]
as §1, §2

[4] = system: pure neuronal cultures (cortical neurons) exposed to glutamine; test: cells; details: Mus musculus, Cortical neurone, 24 h, read-out: neuronal LDH release
[5] = Table 2, glial-neuronal, 2 mM Gln

NC(=O)CC[C@H](N)C(=O)O [Gln, glutamine]
medium glutamate [1]: 197 ± 23 μM Glu | Glutamate concentration ([2]; Table 2, glial, 2 mM Gln): 0.36 ± 0.06 | Glutamate production (S) ([2]; Table 2, glial, 2 mM Gln): 0.03 | glutamate production per culture ([2]; glial, 2 mM glutamine): 12 pmol/min | Glu ([3]; 2 mM Gln, 5 h, mixed cultures, no hypoxia): 0.83 ± 0.47 µM | cytotoxicity at 2000 µM ([3]; Mus musculus, 24 h, read-out: % cell death (LDH)): 17.6% | Glutamate concentration [3, 5]: 0.83 ± 0.47 | Glutamate production (S) [3, 5]: 0.06 | glutamate production per culture ([3]; mixed, 2 mM glutamine): 24 pmol/min | cytotoxicity at 2000 µM [4]: 62 ± 22%
